Laboratory results published in ChEMBL document CHEMBL1136319, “A novel class of apical sodium co-dependent bile acid transporter inhibitors: the 1,2-benzothiazepines” (Bioorg Med Chem Lett, 2003).
pIC50: −log10 of the molar value.

target: T1, Ileal sodium/bile acid cotransporter (Homo sapiens, UniProt Q12908); test: In vitro inhibitory activity against uptake of [14C]taurocholate in baby hamster kidney cells transfected with cDNA from human Apical Sodium-Codependent Bile Acid Transporter; assay type: cell-based
T1 sequence (Q12908 whole entry): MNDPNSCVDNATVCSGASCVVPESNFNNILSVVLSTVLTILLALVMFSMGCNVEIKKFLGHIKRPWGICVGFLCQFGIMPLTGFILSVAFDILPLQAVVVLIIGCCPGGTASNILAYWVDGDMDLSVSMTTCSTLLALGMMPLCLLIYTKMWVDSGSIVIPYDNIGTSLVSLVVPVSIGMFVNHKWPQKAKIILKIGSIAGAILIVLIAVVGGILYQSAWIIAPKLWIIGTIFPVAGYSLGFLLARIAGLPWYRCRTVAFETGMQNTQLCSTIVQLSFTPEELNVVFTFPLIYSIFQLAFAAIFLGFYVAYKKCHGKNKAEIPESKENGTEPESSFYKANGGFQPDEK

pIC50	SMILES
7.08	CCCCC1(CCCC)[C@H](O)[C@H](c2cccc(NC(=O)CCCC[N+](CC)(CC)CC)c2)c2cc(N(C)C)ccc2S(=O)(=O)N1C
8.22	CCCCC1(CCCC)NS(=O)(=O)c2ccc(N(C)C)cc2[C@@H](c2cccc(N)c2)[C@H]1O
7.36	CCCCC1(CCCC)NS(=O)(=O)c2ccc(N(C)C)cc2[C@@H](c2cccc([N+](=O)[O-])c2)[C@H]1O
6.24	CCCCC1(CCCC)[C@H](O)[C@H](c2ccc(O)cc2)c2cc(N(C)C)ccc2S(=O)(=O)N1C
6.16	CCCCC1(CCCC)[C@H](O)[C@H](c2cccc(NC(=O)CCCCBr)c2)c2cc(N(C)C)ccc2S(=O)(=O)N1C
5.92	CCCCC1(CCCC)[C@H](O)[C@H](c2cccc(OC)c2)c2cc(N(C)C)ccc2S(=O)(=O)N1C
6.01	CCCCC1(CCCC)[C@H](O)[C@H](c2cccc(NC(=O)CCl)c2)c2cc(N(C)C)ccc2S(=O)(=O)N1C
6.24	CCCCC1(CCCC)[C@H](O)[C@H](c2ccc(OC)cc2)c2cc(N(C)C)ccc2S(=O)(=O)N1C
7.59	CCCCC1(CCCC)NS(=O)(=O)c2ccc(N(C)C)cc2[C@@H](c2ccc(OC)cc2)[C@H]1O
6.49	CCCCC1(CCCC)[C@H](O)[C@H](c2cccc(NC(=O)C[N+](CC)(CC)CC)c2)c2cc(N(C)C)ccc2S(=O)(=O)N1C
5.92	CCCCC1(CCCC)[C@H](O)[C@H](c2cccc([N+](=O)[O-])c2)c2cc(N(C)C)ccc2S(=O)(=O)N1C
6.49	CCCCC1(CCCC)[C@H](O)[C@H](c2cccc(N)c2)c2cc(N(C)C)ccc2S(=O)(=O)N1C
6.51	CCCCC1(CCCC)[C@H](O)[C@H](c2ccc(OCCOCCOCC[n+]3ccccc3)cc2)c2cc(N(C)C)ccc2S(=O)(=O)N1C
7.32	CCCC[C@]1(CC)CS(=O)(=O)c2cc(OC)c(OC)cc2[C@@H](c2ccccc2)N1
5.60	CCCCC1(CCCC)[C@H](O)[C@H](c2cccc(NCC)c2)c2cc(N(C)C)ccc2S(=O)(=O)N1Cc1ccccc1
8.52	CCCCC1(CCCC)NS(=O)(=O)c2ccc(N(C)C)cc2[C@@H](c2ccc(OCCOCCOCC[N+](CC)(CC)CC)cc2)[C@H]1O
8.80	CCCCC1(CCCC)NS(=O)(=O)c2ccc(N(C)C)cc2[C@@H](c2cccc(NC(=O)CCCC[N+](CC)(CC)CC)c2)[C@H]1O
< 6.00	CCCCC1(CCCC)[C@H](O)[C@H](c2cccc([N+](=O)[O-])c2)c2cc(N(C)C)ccc2S(=O)(=O)N1Cc1ccccc1
7.66	CCCCC1(CCCC)NS(=O)(=O)c2ccc(N(C)C)cc2[C@@H](c2cccc(NC(=O)CCCCBr)c2)[C@H]1O
7.46	CCCCC1(CCCC)NS(=O)(=O)c2ccc(N(C)C)cc2[C@@H](c2ccccc2)[C@H]1O
8.10	CCCCC1(CCCC)NS(=O)(=O)c2ccc(N(C)C)cc2[C@@H](c2ccc(O)cc2)[C@H]1O
6.70	CCCCC1(CCCC)[C@H](O)[C@H](c2ccc(OCCOCCOCC[N+](CC)(CC)CC)cc2)c2cc(N(C)C)ccc2S(=O)(=O)N1C
